# According to patent US20060069132A1, “Azolecarboxamide herbicides” (priority 2004, published 2006):
# Columns and labels:
# [1] = test system: barnyardgrass; assay: Test B flooded paddy test; type: in vivo, Echinochloa crus-galli; conditions: 1000 g ai/ha, visual rating, scale 0 to 100 (0 no effect, 100 complete control), 13 to 15 days
# How it was run: (§1)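 Visual ratings, 0 (no effect) to 100 (complete control), made versus controls after 13–15 d greenhouse. Paddy plants treated at 2-leaf stage; postemergence plants at 1- to 4-leaf stage, 2–18 cm tall.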
# [2] = test system: small flower umbrella sedge; assay: Test B flooded paddy test; type: in vivo, Cyperus difformis; conditions: 1000 g ai/ha, visual rating, scale 0 to 100 (0 no effect, 100 complete control), 13 to 15 days
# How it was run: as §1
# [3] = test system: cocklebur; assay: Test B pre-/postemergence herbicide test; type: in vivo, Xanthium strumarium; conditions: postemergence, visual rating, scale 0 (no effect) to 100 (complete control)
# How it was run: (§2)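 Visual rating, 0 (no effect) to 100 (complete control), versus untreated controls after 13–15 d in greenhouse. Pre- and postemergence applications (postemergence plants 2–18 cm, 1–4 leaves); flooded paddy arm at 2-leaf stage. Compounds in non-phytotoxic solvent plus surfactant.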
# [4] = test system: barnyardgrass; assay: Test A pre-/postemergence herbicide test; type: in vivo, Echinochloa crus-galli
# How it was run: (§3)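 Both application timings were run together: directed soil spray over freshly planted seeds in sandy loam, and runoff spray onto 2–10 cm seedlings. Evaluation after ~10 days in greenhouse used a 0–100 visual scale versus untreated controls.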
# [5] = test system: rice; assay: Test B flooded paddy test; type: in vivo, Oryza sativa; conditions: 1000 g ai/ha, visual rating, scale 0 to 100 (0 no effect, 100 complete control), 13 to 15 days
# How it was run: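 Greenhouse test; postemergence application to plants at 1–4 leaves (2–18 cm); paddy species at 2 leaves; evaluated visually vs controls at 13–15 days; scale 0–100 (100 = complete control).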
# [6] = test system: large crabgrass; assay: Test A pre-/postemergence herbicide test; type: in vivo, Digitaria sanguinalis
# How it was run: as §3
# [7] = test system: lambsquarters; assay: Test B pre-/postemergence herbicide test; type: in vivo, Chenopodium album; conditions: for Lambsquarters plant response rating: postemergence, visual rating, scale 0 (no effect) to 100 (complete control)
# How it was run: (§4)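 Greenhouse pot assay with simultaneous preemergence (treated seed) and postemergence (2–18 cm seedlings) applications of surfactant-containing, non-phytotoxic solvent formulations. Response scored visually 13–15 days later on a 0–100 scale, 100 meaning complete control.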
# [8] = test system: large crabgrass; assay: Test B pre-/postemergence herbicide test; type: in vivo, Digitaria sanguinalis; conditions: for Crabgrass, Large plant response rating: postemergence, visual rating, scale 0 (no effect) to 100 (complete control)
# How it was run: as §4
# [9] = test system: morningglory; assay: Test B pre-/postemergence herbicide test; type: in vivo, Ipomoea coccinea; conditions: for Morningglory plant response rating: postemergence, visual rating, scale 0 (no effect) to 100 (complete control)
# How it was run: as §2
# [10] = test system: redroot pigweed; assay: Test A pre-/postemergence herbicide test; type: in vivo, Amaranthus retroflexus
# How it was run: as §3
# [11] = test system: morningglory; assay: Test A pre-/postemergence herbicide test; type: in vivo, Ipomoea spp.
# How it was run: as §3
# [12] = test system: Surinam grass; assay: Test B pre-/postemergence herbicide test; type: in vivo, Urochloa decumbens; conditions: for Surinam Grass plant response rating: postemergence, visual rating, scale 0 (no effect) to 100 (complete control)
# How it was run: as §4
# [13] = test system: velvetleaf; assay: Test A pre-/postemergence herbicide test; type: in vivo, Abutilon theophrasti
# How it was run: as §3
# [14] = test system: velvetleaf; assay: Test B pre-/postemergence herbicide test; type: in vivo, Abutilon theophrasti; conditions: for Velvetleaf plant response rating: postemergence, visual rating, scale 0 (no effect) to 100 (complete control)
# How it was run: as §4
# [15] = test system: giant foxtail; assay: Test A pre-/postemergence herbicide test; type: in vivo, Setaria faberi
# How it was run: as §3
# [16] = test system: pigweed; assay: Test B pre-/postemergence herbicide test; type: in vivo, Amaranthus retroflexus; conditions: for Pigweed plant response rating: postemergence, visual rating, scale 0 (no effect) to 100 (complete control)
# How it was run: as §4
# [17] = test system: corn; assay: Test B pre-/postemergence herbicide test; type: in vivo, Zea mays; conditions: for Corn plant response rating: postemergence, visual rating, scale 0 (no effect) to 100 (complete control)
# How it was run: as §4
# [18] = test system: giant foxtail; assay: Test B pre-/postemergence herbicide test; type: in vivo, Setaria faberi; conditions: for Foxtail, Giant plant response rating: postemergence, visual rating, scale 0 (no effect) to 100 (complete control)
# How it was run: as §4
# [19] = test system: blackgrass; assay: Test B postemergence herbicide test; type: in vivo, Alopecurus myosuroides; conditions: postemergence, visual rating, scale 0 (no effect) to 100 (complete control)
# How it was run: as §1
# [20] = test system: wheat; assay: Test B postemergence herbicide test; type: in vivo, Triticum aestivum; parameters: key to Wheat plant response rating: 0 = no effect, 100 = complete control; conditions: postemergence, visual rating, scale 0 (no effect) to 100 (complete control)
# How it was run: (§5)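 Plants grow to 1- to 4-leaf stage (2–18 cm) for postemergence spraying, or to 2-leaf stage for the paddy test. Formulated compound is applied. Greenhouse holding lasts 13–15 days. Response is scored visually relative to controls, 0 no effect to 100 complete control; a dash means no result.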
# [21] = test system: ducksalad; assay: Test B flooded paddy test; type: in vivo, Heteranthera limosa; conditions: 1000 g ai/ha, visual rating, scale 0 to 100 (0 no effect, 100 complete control), 13 to 15 days
# How it was run: as §1
# [22] = test system: wild oat; assay: Test B postemergence herbicide test; type: in vivo, Avena fatua; conditions: postemergence, visual rating, scale 0 (no effect) to 100 (complete control)
# How it was run: as §5
# [23] = test system: barnyardgrass; assay: Test B pre-/postemergence herbicide test; type: in vivo, Echinochloa crus-galli; conditions: for Barnyardgrass plant response rating: postemergence, visual rating, scale 0 (no effect) to 100 (complete control)
# How it was run: as §2
# [24] = test system: rice; assay: Test B pre-/postemergence herbicide test; type: in vivo, Oryza sativa; conditions: preemergence
# How it was run: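 Species tested were Echinochloa crus-galli, Ipomoea coccinea, Xanthium strumarium and Oryza sativa, treated both before emergence and at the 1- to 4-leaf stage; rice and barnyardgrass were also tested under flooding at 2 leaves. Greenhouse incubation lasted 13–15 days before visual 0–100 scoring.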
# [25] = Postemergence, 500 g ai/ha, 0 to 100 scale, 0 no effect, 100 complete control
# [26] = Postemergence, 2000 g ai/ha, 0 to 100 scale, 0 no effect, 100 complete control
# [27] = Preemergence, 2000 g ai/ha, visual rating, 0 to 100 scale (0 no effect, 100 complete control)
# [28] = preemergence, 500 g ai/ha, visual injury, 0 to 100 scale (0 no effect, 100 complete control)
# [29] = 125 g ai/ha, 0 = no effect, 100 = complete control, preemergence
# [30] = 500 g ai/ha, visual rating 0-100, 0 no effect, 100 complete control, preemergence
compound,measurement,setting,value
CCn1nc(C(C)(C)C)cc1C(=O)Nc1nc(OC)cc(SCF)n1 [Compound 167],Barnyardgrass plant response rating,[1],0
same,"Sedge, Umbrella plant response rating",[2],0
same,Cocklebur plant response rating,[3]; 125 g ai/ha,0
same,Cocklebur plant response rating,[3]; 500 g ai/ha,0
same,Barnyardgrass plant response rating,[4]; [25],0
same,"Plant response rating, Barnyardgrass",[4]; [26],0
same,Barnyardgrass plant response rating,[4]; [27],0
same,Barnyardgrass plant response rating,[4]; [28],0
same,Rice plant response rating,[5],0
same,"Crabgrass, Large plant response rating",[6]; [25],0
same,"Plant response rating, Crabgrass, Large",[6]; [26],5
same,"Crabgrass, Large plant response rating",[6]; [27],5
same,"Crabgrass, Large plant response rating",[6]; [28],0
same,Lambsquarters plant response rating (0 to 100 scale),[7]; [29],0
same,"Plant response rating, Lambsquarters",[7]; [30],0
same,Lambsquarters plant response rating,[7]; 125 g ai/ha,0
same,Lambsquarters plant response rating,[7]; 500 g ai/ha,0
same,"Crabgrass, Large plant response rating (0 to 100 scale)",[8]; [29],0
same,"Plant response rating, Crabgrass, Large",[8]; [30],0
same,"Crabgrass, Large plant response rating",[8]; 125 g ai/ha,0
same,"Crabgrass, Large plant response rating",[8]; 500 g ai/ha,0
same,Morningglory plant response rating (0 to 100 scale),[9]; [29],0
same,"Plant response rating, Morningglory",[9]; [30],0
same,Morningglory plant response rating,[9]; 125 g ai/ha,0
same,Morningglory plant response rating,[9]; 500 g ai/ha,0
same,Pigweed plant response rating,[10]; [25],0
same,"Plant response rating, Pigweed",[10]; [26],0
same,Pigweed plant response rating,[10]; [27],50
same,Pigweed plant response rating,[10]; [28],0
same,Morningglory plant response rating,[11]; [25],0
same,"Plant response rating, Morningglory",[11]; [26],10
same,Morningglory plant response rating,[11]; [27],5
same,Morningglory plant response rating,[11]; [28],0
same,Surinam Grass plant response rating (0 to 100 scale),[12]; [29],0
same,"Plant response rating, Surinam Grass",[12]; [30],0
same,Surinam Grass plant response rating,[12]; 125 g ai/ha,0
same,Surinam Grass plant response rating,[12]; 500 g ai/ha,0
same,Velvetleaf plant response rating,[13]; [25],10
same,"Plant response rating, Velvetleaf",[13]; [26],20
same,Velvetleaf plant response rating,[13]; [27],10
same,Velvetleaf plant response rating,[13]; [28],5
same,Velvetleaf plant response rating (0 to 100 scale),[14]; [29],0
same,"Plant response rating, Velvetleaf",[14]; [30],0
same,Velvetleaf plant response rating,[14]; 125 g ai/ha,0
same,Velvetleaf plant response rating,[14]; 500 g ai/ha,0
same,"Foxtail, Giant plant response rating",[15]; [25],0
same,"Plant response rating, Foxtail, Giant",[15]; [26],0
same,"Foxtail, Giant plant response rating",[15]; [27],10
same,"Foxtail, Giant plant response rating",[15]; [28],0
same,Pigweed plant response rating (0 to 100 scale),[16]; [29],0
same,"Plant response rating, Pigweed",[16]; [30],0
same,Pigweed plant response rating,[16]; 125 g ai/ha,0
same,Pigweed plant response rating,[16]; 500 g ai/ha,0
same,"Plant response rating, Corn",[17]; [30],0
same,Corn plant response rating,[17]; 125 g ai/ha,0
same,Corn plant response rating,[17]; 500 g ai/ha,0
same,"Foxtail, Giant plant response rating (0 to 100 scale)",[18]; [29],0
same,"Plant response rating, Foxtail, Giant",[18]; [30],0
same,"Foxtail, Giant plant response rating",[18]; 125 g ai/ha,0
same,"Foxtail, Giant plant response rating",[18]; 500 g ai/ha,0
same,Blackgrass plant response rating,[19]; 125 g ai/ha,0
same,Blackgrass plant response rating,[19]; 500 g ai/ha,0
same,Wheat plant response rating,[20]; 125 g ai/ha,0
same,Wheat plant response rating,[20]; 500 g ai/ha,0
same,Ducksalad plant response rating,[21],0
same,"Oat, Wild plant response rating",[22]; 125 g ai/ha,0
same,"Oat, Wild plant response rating",[22]; 500 g ai/ha,0
same,Barnyardgrass plant response rating (0 to 100 scale),[23]; [29],0
same,"Plant response rating, Barnyardgrass",[23]; [30],0
same,Barnyardgrass plant response rating,[23]; 125 g ai/ha,0
same,Barnyardgrass plant response rating,[23]; 500 g ai/ha,0
same,Rice plant response rating (0 to 100 scale),"[24]; 125 g ai/ha, 0 = no effect, 100 = complete control",0
same,"Plant response rating, Rice","[24]; 500 g ai/ha, visual rating 0-100, 0 no effect, 100 complete control",0
